Results on 17 compounds are retold here after patent publication US8003660B2, “Modulators of muscarinic receptors” (Vertex Pharmaceuticals Incorporated, priority 2006, dated 2011).

Holding throughout (type): cell-based
In experiment [1] the target is T1, M2 muscarinic receptor (Homo sapiens, UniProt P08172).
T1 construct: expressed in transfected cells; host or cells: CHO (M2-CHO)
T1 sequence (P08172 1-466): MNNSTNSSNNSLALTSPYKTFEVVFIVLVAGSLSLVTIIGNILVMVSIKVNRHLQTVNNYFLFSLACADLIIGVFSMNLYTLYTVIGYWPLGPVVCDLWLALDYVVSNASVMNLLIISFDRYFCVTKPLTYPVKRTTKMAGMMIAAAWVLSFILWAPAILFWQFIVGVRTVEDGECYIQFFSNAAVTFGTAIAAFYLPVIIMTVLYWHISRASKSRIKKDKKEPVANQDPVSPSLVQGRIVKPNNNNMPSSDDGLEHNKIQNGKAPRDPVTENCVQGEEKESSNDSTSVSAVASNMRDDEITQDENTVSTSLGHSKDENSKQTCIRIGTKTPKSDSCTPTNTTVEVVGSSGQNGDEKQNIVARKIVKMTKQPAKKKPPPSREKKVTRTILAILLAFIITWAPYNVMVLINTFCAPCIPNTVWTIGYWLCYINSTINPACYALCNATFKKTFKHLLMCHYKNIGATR
Kind of experiment: Functional mobilization of intracellular calcium (FLIPR) in CHO cells expressing M2. The note with it: for EC50: CHO cells expressing M2, FLIPR calcium; for Emax: CHO, 100% = maximum response obtained with the Carbachol control, read-out: M2 Efficacy. A digest of the protocol: (§1)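 Calcium flux is read on FLIPR over 60 sec at 488/540 nm in muscarinic-receptor CHO lines. Antagonist mode adds carbachol at EC80 after 15 min compound preincubation or with simultaneous co-application. Agonist mode adds compound alone. Cells carry Fluo-3 or Calcium 3 dye in probenecid-containing pH 7.4 buffer, 0.5% DMSO final.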
Background: Calcium assays in cells follow changes in intracellular calcium, usually with a dye or a luminescent sensor.

Experiment [2] addresses T2, M3 muscarinic receptor (Homo sapiens, UniProt P20309).
T2 construct: expressed in transfected cells; host or cells: CHO (M3-CHO)
Kind of experiment: Functional mobilization of intracellular calcium (FLIPR) in CHO cells expressing M3. The note with it: for EC50: CHO cells expressing M3, FLIPR calcium; for Emax: CHO, 100% = maximum response obtained with the Carbachol control, read-out: M3 Efficacy. A digest of the protocol: as §1

Experiment [3] concerns the target T3, M1 muscarinic receptor (Homo sapiens, UniProt P11229).
T3 construct: expressed in transfected cells; host or cells: CHO (M1-CHO)
T3 sequence (P11229 1-460): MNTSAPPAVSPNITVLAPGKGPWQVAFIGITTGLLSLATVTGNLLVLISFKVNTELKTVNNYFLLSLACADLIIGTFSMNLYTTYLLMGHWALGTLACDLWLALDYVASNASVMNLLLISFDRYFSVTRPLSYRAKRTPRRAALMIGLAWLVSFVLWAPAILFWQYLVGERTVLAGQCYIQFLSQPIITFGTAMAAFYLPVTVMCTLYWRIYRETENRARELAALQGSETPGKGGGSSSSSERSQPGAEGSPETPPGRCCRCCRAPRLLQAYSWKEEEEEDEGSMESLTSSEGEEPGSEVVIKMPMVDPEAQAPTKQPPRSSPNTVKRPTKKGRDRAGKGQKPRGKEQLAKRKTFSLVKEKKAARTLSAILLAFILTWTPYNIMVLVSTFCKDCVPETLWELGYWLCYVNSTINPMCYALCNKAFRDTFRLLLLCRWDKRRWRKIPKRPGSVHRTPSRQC
The experiment in a line: Functional mobilization of intracellular calcium (FLIPR) in CHO cells expressing M1. The note with it: for EC50: CHO cells expressing M1, FLIPR calcium; for Emax: CHO, 100% = maximum response obtained with the Carbachol control, read-out: M1 Efficacy. A digest of the protocol:
as §1

For experiment [4], the target named is T4, M4 muscarinic receptor (Homo sapiens, UniProt P08173).
T4 construct: expressed in transfected cells; host or cells: CHO (M4-CHO)
T4 sequence (P08173 1-479): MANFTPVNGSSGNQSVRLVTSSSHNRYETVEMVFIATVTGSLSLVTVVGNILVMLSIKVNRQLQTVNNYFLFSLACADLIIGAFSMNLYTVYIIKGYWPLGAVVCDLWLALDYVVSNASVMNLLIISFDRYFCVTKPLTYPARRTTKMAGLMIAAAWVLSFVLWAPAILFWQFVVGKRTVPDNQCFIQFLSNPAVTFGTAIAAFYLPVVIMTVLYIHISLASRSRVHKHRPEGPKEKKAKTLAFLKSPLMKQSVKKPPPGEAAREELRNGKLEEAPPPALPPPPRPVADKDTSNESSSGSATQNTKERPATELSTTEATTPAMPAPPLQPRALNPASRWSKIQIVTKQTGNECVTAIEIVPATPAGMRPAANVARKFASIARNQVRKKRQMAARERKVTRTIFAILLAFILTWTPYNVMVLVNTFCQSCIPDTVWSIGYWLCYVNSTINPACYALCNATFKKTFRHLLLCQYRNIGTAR
Kind of experiment: Functional mobilization of intracellular calcium (FLIPR) in CHO cells expressing M4. The note with it: for EC50: CHO cells expressing M4, FLIPR calcium; for Emax: CHO, 100% = maximum response obtained with the Carbachol control, read-out: M4 Efficacy. A digest of the protocol:
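Read-out: FLIPR fluorescence (ex 488, em 540 nm) over 60 s. Recombinant CHO lines are dye-loaded (Fluo-3 AM or Calcium 3) with 1 mM probenecid. For antagonist mode, compound is pre-incubated 15 min, or co-applied, then carbachol is added at 3× EC80 per subtype.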

T2 sequence (P20309 whole entry): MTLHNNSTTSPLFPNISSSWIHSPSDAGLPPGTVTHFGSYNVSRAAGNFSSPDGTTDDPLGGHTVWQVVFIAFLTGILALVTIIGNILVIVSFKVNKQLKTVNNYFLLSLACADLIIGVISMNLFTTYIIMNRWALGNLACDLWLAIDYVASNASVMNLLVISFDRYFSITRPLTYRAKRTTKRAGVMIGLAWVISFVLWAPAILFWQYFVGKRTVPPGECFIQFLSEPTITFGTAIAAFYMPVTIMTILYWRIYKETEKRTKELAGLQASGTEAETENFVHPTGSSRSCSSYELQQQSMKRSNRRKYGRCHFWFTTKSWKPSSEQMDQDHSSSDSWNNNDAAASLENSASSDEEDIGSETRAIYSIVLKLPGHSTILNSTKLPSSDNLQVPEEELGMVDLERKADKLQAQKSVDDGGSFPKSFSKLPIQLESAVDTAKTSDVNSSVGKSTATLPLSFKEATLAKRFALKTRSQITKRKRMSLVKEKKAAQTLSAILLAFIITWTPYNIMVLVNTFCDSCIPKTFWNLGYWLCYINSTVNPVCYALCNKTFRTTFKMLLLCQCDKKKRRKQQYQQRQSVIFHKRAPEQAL

As a reminder, the EC50 is the concentration giving half of the maximal effect. Consider `CC(C)(C)CCN1CCC2(CCC(C#N)c3ccccc32)CC1` (stereo not shown) [compound 97], for which the EC50 in experiment [1] is < 2 µM; in experiment [2], > 5 µM; in experiment [3], < 2 µM; in experiment [4], < 2 µM. In addition, the Emax was 25 to 100% in experiment [1], < 25% in experiment [2], 25 to 100% in experiment [3] and 25 to 100% in experiment [4].

For the compound `Cn1cnc(C(=O)N[C@H]2CCC3(CCN(CCC(C)(C)C)CC3)c3ccccc32)c1` [compound 98], the EC50 is > 5 µM in experiment [1], > 5 µM in experiment [2], < 2 µM in experiment [3] and < 2 µM in experiment [4]. Besides, the Emax in experiment [1] was < 25%; in experiment [2], < 25%; in experiment [3], 25 to 100%; in experiment [4], 25 to 100%.

As to `CCOCC(=O)N[C@@H]1CCC2(CCN(CCC(C)(C)C)CC2)c2ccccc21` [compound 99], the EC50 in experiment [1] was > 5 µM; in experiment [2] it was > 5 µM; in experiment [3] it was > 5 µM; in experiment [4], < 2 µM. The Emax was < 25% in experiment [1], < 25% in experiment [2], < 25% in experiment [3] and 25 to 100% in experiment [4].

For the compound `CCN(C(=O)CCNC(C)=O)[C@@H]1CCC2(CCN(CCC(C)(C)C)CC2)c2ccccc21` [compound 100], the EC50 in experiment [1] is > 5 µM; in experiment [2], > 5 µM; in experiment [3], > 5 µM; in experiment [4] it was < 2 µM. Also, the Emax in experiment [1] was < 25%; in experiment [2], < 25%; in experiment [3] it was < 25%; in experiment [4] it was 25 to 100%.

`CCN(C(=O)c1cncn1C)[C@@H]1CCC2(CCN(CCC(C)(C)C)CC2)c2ccccc21` [compound 101]: the EC50 is > 5 µM in experiment [1], > 5 µM in experiment [2], < 2 µM in experiment [3] and 2 to 5 µM in experiment [4]. The Emax is < 25% in experiment [1], < 25% in experiment [2], 25 to 100% in experiment [3] and 25 to 100% in experiment [4].

For the compound `CC(C)(C)CCN1CCC2(CC[C@H](N3C(=O)CCC3=O)c3ccccc32)CC1` [compound 102], the EC50 was > 5 µM in experiment [1], > 5 µM in experiment [2], 2 to 5 µM in experiment [3] and < 2 µM in experiment [4]. Also, the Emax is < 25% in experiment [1], < 25% in experiment [2], 25 to 100% in experiment [3] and 25 to 100% in experiment [4].

As to `CC(C)(C)CCN1CCC2(CC[C@H](NC(=O)C3CCC(=O)N3)c3ccc(F)cc32)CC1` (stereo partly shown) [compound 103], the EC50 in experiment [1] was < 2 µM; in experiment [2], > 5 µM; in experiment [3], < 2 µM; in experiment [4], < 2 µM. In addition, the Emax in experiment [1] was < 25%; in experiment [2] it was < 25%; in experiment [3] it was 25 to 100%; in experiment [4] it was 25 to 100%.

As to `CC(=O)N[C@H]1CCC2(CCN(CC(C)C)CC2)c2ccccc21` [compound 104], the EC50 was > 5 µM in experiment [1], > 5 µM in experiment [2], 2 to 5 µM in experiment [3] and 2 to 5 µM in experiment [4]. Also, the Emax was 25 to 100% in experiment [1], < 25% in experiment [2], 25 to 100% in experiment [3] and 25 to 100% in experiment [4].

In the case of `COCCC(=O)N[C@@H]1CCC2(CCN(CCC(C)(C)C)CC2)c2ccccc21` [compound 105], the EC50 in experiment [1] is > 5 µM; in experiment [2], > 5 µM; in experiment [3] it was 2 to 5 µM; in experiment [4] it was < 2 µM. Besides, the Emax was < 25% in experiment [1], < 25% in experiment [2], < 25% in experiment [3] and 25 to 100% in experiment [4].

Consider `C[C@@H](C(=O)N[C@H]1CCC2(CCN(CCC(C)(C)C)CC2)c2cc(F)ccc21)N1CCCC1=O` [compound 106], for which the EC50 in experiment [1] was < 2 µM; in experiment [2], > 5 µM; in experiment [3], < 2 µM; in experiment [4], < 2 µM. For the same compound, the Emax in experiment [1] was 25 to 100%; in experiment [2], < 25%; in experiment [3] it was 25 to 100%; in experiment [4], 25 to 100%.

On to `CC(=O)N1CCC[C@@H]1C(=O)N[C@@H]1CCC2(CCN(CCC(C)(C)C)CC2)c2ccccc21` [compound 107], for which the EC50 in experiment [1] is 2 to 5 µM; in experiment [2], > 5 µM; in experiment [3] it was 2 to 5 µM; in experiment [4] it was < 2 µM. Further, the Emax in experiment [1] was < 25%; in experiment [2] it was < 25%; in experiment [3], 25 to 100%; in experiment [4], 25 to 100%.

With `CC(C)(C)CCN1CCC2(CC[C@H](NC(=O)c3cccnc3)c3ccccc32)CC1` [compound 108], the EC50 in experiment [1] is < 2 µM; in experiment [2], > 5 µM; in experiment [3] it was < 2 µM; in experiment [4], < 2 µM. For the same compound, the Emax in experiment [1] is < 25%; in experiment [2], < 25%; in experiment [3] it was 25 to 100%; in experiment [4] it was 25 to 100%.

Turning to `C[C@H](C(=O)N[C@H]1CCC2(CCN(CCC(C)(C)C)CC2)c2ccccc21)N1CCCC1=O` [compound 109], the EC50 in experiment [1] is > 5 µM; in experiment [2], > 5 µM; in experiment [3], < 2 µM; in experiment [4], < 2 µM. In addition, the Emax is < 25% in experiment [1], < 25% in experiment [2], 25 to 100% in experiment [3] and 25 to 100% in experiment [4].

On to `CCN(C(=O)CCC(F)(F)F)[C@H]1CCC2(CCN(CCC(C)(C)C)CC2)c2ccccc21` [compound 110], for which the EC50 in experiment [1] was > 5 µM; in experiment [2], > 5 µM; in experiment [3], > 5 µM; in experiment [4], < 2 µM. Also, the Emax in experiment [1] is < 25%; in experiment [2] it was < 25%; in experiment [3] it was 25 to 100%; in experiment [4] it was 25 to 100%.

Regarding `CCN(C(=O)c1cccnc1)[C@@H]1CCC2(CCN(CCC(C)(C)C)CC2)c2ccccc21` [compound 111], the concentration for a half-maximal effect (EC50) was > 5 µM in experiment [1], > 5 µM in experiment [2], > 5 µM in experiment [3] and < 2 µM in experiment [4]. For the same compound, the Emax in experiment [1] was < 25%; in experiment [2], < 25%; in experiment [3], < 25%; in experiment [4], 25 to 100%.

Consider `C[C@H](C(=O)N[C@@H]1CCC2(CCN(CCC(C)(C)C)CC2)c2ccccc21)N1CCCCC1=O` [compound 113], for which the EC50 was > 5 µM in experiment [1], > 5 µM in experiment [2], > 5 µM in experiment [3] and < 2 µM in experiment [4]. In addition, the Emax in experiment [1] is < 25%; in experiment [2], < 25%; in experiment [3], < 25%; in experiment [4] it was 25 to 100%.

Consider `CCn1cc(C(=O)N[C@H]2CCC3(CCN(CCC(C)(C)C)CC3)c3ccccc32)cn1` [compound 115], for which the EC50 is < 2 µM in experiment [1], > 5 µM in experiment [2], < 2 µM in experiment [3] and < 2 µM in experiment [4]. The Emax in experiment [1] was 25 to 100%; in experiment [2], < 25%; in experiment [3] it was 25 to 100%; in experiment [4], 25 to 100%.
